According to patent publication US20160051579A1, “NITRIC OXIDE TREATMENT OF BOVINE RESPIRATORY DISEASE COMPLEX AND OTHER RESPIRATORY CONDITIONS” (Bovicor Pharmatech, Inc., priority 2014, published 2016):
“Also recorded” adds a separate entry of the source.

Assays:
[1] = cited from earlier work
BRDc = test: Commercial feedlot trial NORS vs Micotil: BRDc incidence, relapse, mortality; type: in vivo, beef calves
From the text: Commingled, multi-sourced, mixed-breed beef calves were purchased from auction markets for these studies. […] Animals identified for the study were to be approximately 6 months old with an estimated initial mean body weight of between 400-600 lbs. All animals were transported via commercial cattle liners to the feedlot. […] After a 24-hour acclimatization period, the calves were screened, enrolled, randomized, processed, weighed, and temperature measured with blood samples taken by a veterinarian.
(§1) NORS was delivered with a spray device specifically designed for the study. […] Animals in the control cohort received an injection of Micotil® of 2 mL/100 lb.
Animals identified by the pen keepers as appearing to be sick were “pulled” and brought into a barn. The animal was then placed in a catch chute and assessed by a veterinarian, who was blinded to the study, and assigned a clinical score to each animal.
BRDc was diagnosed as positive based on temperature greater than 103.5° F. and a clinical pulmonary score of 3 or greater.
At day 150, all animals were assessed for average daily weight gain and recorded.
Animals that died during the first 35 days of the study, for any reason, were sent for pathology testing (done by a board certified, blinded, veterinary pathologist). The following sections were tested: Lungs (left anterior, left middle, left caudal, right anterior, right middle, right caudal), heart, nasal mucosa, pharynx, Retropharyngeal L.N. and trachea. Diagnosis for the cause of death was determined by the pathologist.
Deaths of animals from day 35 to 150 were recorded and the farm's pathologist identified the cause of death.
In order to evaluate the difference in BRDc positive rates between NORS and Micotil® treated animals, a non-inferiority analysis was conducted. Specifically, the null hypothesis that the BRDc positive rate in the Bovinex group (pB) is more than 7.5% higher than the rate in the Micotil® group (pM) was tested using a nonparametric bootstrap: • H0: pB−pM≧7.5% • vs. • H1: pB−pM<7.5%

[2] = Commercial feedlot trial NORS vs Micotil: weight gain; type: in vivo, beef calves
Experimental: as §1
During the follow-up period (day 35 to day 60), relapses requiring antibiotic intervention were recorded as part of the normal feedlot routine. At day 150, all animals were assessed for average daily weight gain and recorded.
In order to evaluate the effect of treatment on 35-day weight change, a linear mixed effects model was fit to the data. Specifically, the effect of treatment on weight change was evaluated while controlling for baseline weight (fixed effect) and pen (random effect). Confidence intervals are based on the linear mixed effects model and account for the possibility of correlation of animals grouped together within the same pen.

[3] = tested on: Trichophyton mentagrophytes; test: Antifungal efficacy of NORS, mycelial viability; type: cell-based; conditions: 0.14% sodium nitrite (pH 6) or citric acid at pH 3.7 alone, 30-minute exposure
Trichophyton rubrum = test: Antifungal efficacy of NORS, mycelial viability; type: cell-based; conditions: 0.14% sodium nitrite (pH 6) or citric acid at pH 3.7 alone, 30-minute exposure
[4] = in vivo; cited from earlier work

[N]=O [NO, Nitric Oxide]
half-life in the body [1]: less than 6 s

CC[C@H]1OC(=O)C[C@@H](O)[C@H](C)[C@@H](O[C@@H]2O[C@H](C)[C@@H](O)[C@H](N(C)C)[C@H]2O)[C@@H](CCN2C[C@H](C)C[C@H](C)C2)C[C@@H](C)C(=O)/C=C/C(C)=C/[C@@H]1CO[C@@H]1O[C@H](C)[C@@H](O)[C@@H](OC)[C@H]1OC [antibiotic, tilmicosin]
# of BRDc positive animals (BRDc; Pen B2): 1
% of BRDc positive animals (BRDc; Pen B2): 0.7%
# of BRDc positive animals (BRDc; Pen B6): 5
% of BRDc positive animals (BRDc; Pen B6): 3.7%
# of BRDc positive animals (BRDc; Pen C3): 3
% of BRDc positive animals (BRDc; Pen C3): 2.2%
# of BRDc positive animals (BRDc; Pen C7): 8
% of BRDc positive animals (BRDc; Pen C7): 6.2%
BRDc related deaths as diagnosed by the feedlot (BRDc; day 35-150): 3
animals that died (BRDc; day 35-150): 12
animals that died (BRDc; during the 35 days of the study): 8
animals pulled for suspected illness (BRDc; first 35 days): Thirty-three
number of relapses (BRDc; followed until day 150): 10
# of BRDc positive animals (BRDc; total of cohort, 35 days): 17
% of BRDc positive animals (BRDc; total of cohort, 35 days): 3.2%
average daily gain ([2]; 35 days): 2.0 lbs/day
average 35-day weight gain ([2]; baseline weight of 554 lbs): 70 lbs
average daily gain ([2]; day 150): 2.61 lbs
average gain ([2]; day 150): 392 lbs
additional weight gain relative to those treated with NORS ([2]; over 35 days): 5.5 lbs

O=C(O)CC(O)(CC(=O)O)C(=O)O [citric acid]
effect of single component on mycelial growth [3]: Minimal to no effect; also recorded: no significant effect
effect of single component on mycelial growth (Trichophyton rubrum): Minimal to no effect; also recorded: no significant effect

O=NO [sodium nitrite]
effect of single component on mycelial growth [3]: Minimal to no effect
effect of single component on mycelial growth ([3]; listed as nitrites): no significant effect
effect of single component on mycelial growth (Trichophyton rubrum): Minimal to no effect
effect of single component on mycelial growth (Trichophyton rubrum; listed as nitrites): no significant effect

CCCNC[C@]1(O)[C@H](C)O[C@@H](O[C@H]2[C@H](C)[C@@H](O[C@@H]3O[C@H](C)C[C@H](N(C)C)[C@H]3O)[C@](C)(O)C[C@@H](C)CN[C@H](C)[C@@H](O)[C@](C)(O)[C@@H](CC)OC(=O)[C@@H]2C)C[C@@]1(C)OC [tulathromycin]
time remaining in the pulmonary system [4]: ≤ 28 days
